Source: patent publication US8536157B2, “Non-steroidal compounds” (The University of Melbourne, priority 2007, dated 2013)

Assays:
[1] = molecular target: proteins in rat lung membranes; test: Competitive binding assay with [3H]-CP2117 on rat lung membranes (RLM); conditions: given as Log IC50 (negative values); displacement of 10 nM [3H]-CP2117, overnight at 4° C.; ND- not detected
[2] = test system: PGE2 release in J774 macrophages; test: PGE2 release from LPS/IFNγ-stimulated J774 macrophages (radioimmunoassay); assay type: cell-based, murine; conditions: 30 min pre-treatment, 24 hour incubation; for activity at 1 µM / activity at 10 µM: Mus musculus, J774, 24 h; for activity at 1 µM: read-out: Effects on PGE2 release in J774 macrophages at 1 μM as a % of LPS/IFNγ control, mean; for activity at 10 µM: read-out: Effects on PGE2 release in J774 macrophages at l0 μM as a % of LPS/IFNγ control, mean

Structure (SMILES) | Log IC50 RLM binding [1] | activity at 10 µM ([2]; l0 μM) [%] | further results
COc1ccc(/C(C)=N/OCc2ccc([N+](=O)[O-])cc2)cc1F [CP9123, 3′-Fluoro-4′-methoxyacetophenone-O-4-nitrobenzyloxime] | – | – | melting point: 67 to 68 °C
COc1ccc(/C(C)=N/OCc2cccc(F)c2)cc1F [CP9125, 3′-Fluoro-4′-methoxyacetophenone-O-3-fluorobenzyloxime] | −5.5 | – | melting point: 67 °C
COc1ccc(/C(C)=N/OCc2ccc(F)c(F)c2)cc1F [CP9126, 3′-Fluoro-4′-methoxyacetophenone-O-3,4-difluorobenzyloxime] | – | – | melting point: 62 to 63 °C
C/C(=N\OCc1ccc2nonc2c1)c1ccc(O)c(F)c1 [CP9128, 3′-Fluoro-4′-hydroxyacetophenone-O-[(benzo[c][1,2,5]oxadiazol-5-yl)methyl]oxime] | −5.9 | 65 | activity at 1 µM [2]: 62%
COc1cc(/C(C)=N/OCc2ccc3nonc3c2)ccc1F [CP9129, 4′-Fluoro-3′-methoxyacetophenone-O-[(benzo[c][1,2,5]oxadiazol-5-yl)methyl]oxime] | – | – | melting point: 65 °C
C/C(=N\OCc1ccc([N+](=O)[O-])cc1)c1ccc(O)c(F)c1 [CP9132, 3′-Fluoro-4′-hydroxyacetophenone-O-4-nitrobenzyloxime] | – | – | melting point: 93 to 94 °C
C/C(=N\OCc1ccc2nonc2c1)c1ccc(F)c(O)c1 [CP9135, 4′-Fluoro-3′-hydroxyacetophenone-O—[(benzo[c][1,2,5]oxadiazol-5-yl)methyl]oxime] | −5.28 | 90 | activity at 1 µM [2]: 66%
C/C(=N\OCc1ccc([N+](=O)[O-])cc1)c1ccccc1 [CP30252, (E)-Acetophenone O-4-Nitrobenzyl Oxime] | – | – | melting point: 91.3 to 92.3 °C
COc1ccc(/C(C)=N/OCc2ccc([N+](=O)[O-])cc2)cc1OC(C)C [CP30254, (E)-3′-Isopropoxy-4′-methoxyacetophenone O-4-Nitrobenzyl Oxime] | – | – | melting point: 44.5 to 46.1 °C
C/C(=N\OCc1ccc([N+](=O)[O-])cc1)c1ccc2c(c1)OCO2 [CP30255, (E)-3′,4′-Methylenedioxyacetophenone O-4-Nitrobenzyl Oxime] | – | – | melting point: 158.7 to 160.5 °C
COc1ccc(/C(C)=N/OCc2ccc([N+](=O)[O-])cc2)cc1OC [CP30257, (E)-3′,4′-Dimethoxyacetophenone O-4-Nitrobenzyl Oxime] | – | – | melting point: 118.4 to 121 °C
C/C(=N\OCc1ccc([N+](=O)[O-])cc1)c1cccc(O)c1 [CP30260, (E)-3′-Hydroxyacetophenone O-4-Nitrobenzyl Oxime] | – | – | melting point: 123.6 to 125.3 °C
COc1ccc(/C(C)=N/OCc2cccc(F)c2)cc1O [CP30262, (E)-3′-Hydroxy-4′-methoxyacetophenone O-3-Fluorobenzyl Oxime] | −6.88 | – | –
COc1ccc(/C(C)=N/OCc2cccc(C)c2)cc1O [CP30264, (E)-3′-Hydroxy-4′-methoxyacetophenone O-3-Methylbenzyl Oxime] | −6.96 | 74 | activity at 1 µM [2]: 77%
COc1ccc(/C(C)=N/OCc2ccc(F)cc2)cc1O [CP30266, (E)-3′-Hydroxy-4′-methoxyacetophenone O-4-Fluorobenzyl Oxime] | −6.9 | – | –
COc1ccc(/C(C)=N/OCc2ccccc2F)cc1O [CP30280, (E)-3′-Hydroxy-4′-methoxyacetophenone O-2-Fluorobenzyl Oxime] | −6.5 | – | –
COc1ccc(/C(C)=N/OCc2ccc(F)c(F)c2)cc1O [CP30281, (E)-3′-Hydroxy-4′-methoxyacetophenone O-3,4-Difluorobenzyl Oxime] | −6.16 | – | –
COc1ccc(/C(C)=N/OCc2cccc(OC(F)(F)F)c2)cc1O [CP30282, (E)-3′-Hydroxy-4′-methoxyacetophenone O-3-Trifluoromethoxybenzyl Oxime] | −6.41 | – | –
COc1cc(-c2ccccc2)c(/C(C)=N/OCc2ccc([N+](=O)[O-])cc2)cc1O [CP30329, (E)-5′-Hydroxy-4′-methoxy-2′-phenylacetophenone O-4-Nitrobenzyl Oxime] | −6.2 | 55 | –
COc1cc(-c2ccc(OC)c(OC)c2)c(/C(C)=N/OCc2ccc([N+](=O)[O-])cc2)cc1O [CP30331, (E)-5′-Hydroxy-4′-methoxy-2′-(3,4-dimethoxyphenyl)acetophenone O-4-Nitrobenzyl Oxime] | −6.14 | 28 | –
COc1ccc(-c2cc(OC)c(O)cc2/C(C)=N/OCc2ccc([N+](=O)[O-])cc2)cc1 [CP30338, (E)-5′-Hydroxy-4′-methoxy-2′-(4-methoxyphenyl)acetophenone O-4-Nitrobenzyl Oxime] | −6.88 | – | –
COc1cc(-c2cccc(NC(=O)OC(C)(C)C)c2)c(/C(C)=N/OCc2ccc([N+](=O)[O-])cc2)cc1O [CP30339, (E)-2′-(3-tert-Butoxycarbonylaminophenyl)-5′-hydroxy-4′-methoxyacetophenone O-4-Nitrobenzyl Oxime] | −6.64 | 36 | –
COc1cc(-c2ccc(Cl)cc2)c(/C(C)=N/OCc2ccc([N+](=O)[O-])cc2)cc1O [CP30340, (E)-2′-(4-Chlorophenyl)-5′-hydroxy-4′-methoxyacetophenone O-4-Nitrobenzyl Oxime] | −6.26 | 51 | –
COc1cc(-c2ccc(N)cc2)c(/C(C)=N/OCc2ccc([N+](=O)[O-])cc2)cc1O [CP30381, (E)-2′-(4-Aminophenyl)-5′-hydroxy-4′-methoxyacetophenone O-4-Nitrobenzyl Oxime] | – | – | activity at 1 µM [2]: 62%
COc1cc(Br)c(/C(C)=N/OCc2ccc([N+](=O)[O-])cc2)cc1O [CP302108-Major, (E)-2′-Bromo-5′-hydroxy-4′-methoxyacetophenone O-4-Nitrobenzyl Oxime] | – | – | melting point: 136.8 to 138.4 °C
COc1cc2c(cc1OC)/C(=N/OCc1ccc([N+](=O)[O-])cc1)CC2 [TB54, (E)-5,6-Dimethoxy-2,3-dihydroinden-1-one O-4-Nitrobenzyl Oxime] | – | 78 | activity at 1 µM [2]: 95%

Continued, in another order:

Log IC50 RLM binding [1] | Structure (SMILES) | activity at 10 µM ([2]; l0 μM) [%] | further results
−6.23 | COc1cc(-c2ccc(OC(F)(F)F)cc2)c(/C(C)=N/OCc2ccc([N+](=O)[O-])cc2)cc1O [CP30343, (E)-2′-(4-Trifluoromethoxyphenyl)-5′-hydroxy-4′-methoxyacetophenone O-4-Nitrobenzyl Oxime] | 51 | activity at 1 µM [2]: 65%
−5.43 | COc1cc(-c2ccc(F)cc2)c(/C(C)=N/OCc2ccc([N+](=O)[O-])cc2)cc1O [CP30344, (E)-2′-(4-Fluorophenyl)-5′-hydroxy-4′-methoxyacetophenone O-4-Nitrobenzyl Oxime] | 94 | activity at 1 µM [2]: 111%
−5.75 | COc1ccc(C(=NOCc2ccc([N+](=O)[O-])cc2)[C@H]2CC[C@H](CCO)CC2)cc1O [CP30347, trans-(3-Hydroxy-4-methoxyphenyl)-4-(2-hydroxyethyl)cyclohexylmethanone O-4-Nitrobenzyl Oxime] | 68 | activity at 1 µM [2]: 102%
−6.02 | COc1ccc(C(=NOCc2ccc([N+](=O)[O-])cc2)[C@H]2CC[C@@H](CCO)CC2)cc1O [CP30348-1, cis-(3-Hydroxy-4-methoxyphenyl)-4-(2-hydroxyethyl)cyclohexylmethanone O-4-Nitrobenzyl Oxime] | 91 | Effects on PGE2 release in J774 macrophages at 1 μM as a % of LPS/IFNγ control, mean [2]: 124 % of LPS/IFNγ control
−5.6 | COc1ccc(C(=NOCc2ccc([N+](=O)[O-])cc2)[C@H]2CC[C@@H](CCO)CC2)cc1O [CP30348-2, cis-(3-Hydroxy-4-methoxyphenyl)-4-(2-hydroxyethyl)cyclohexylmethanone O-4-Nitrobenzyl Oxime] | – | Effects on PGE2 release in J774 macrophages at 1 μM as a % of LPS/IFNγ control, mean [2]: 85 % of LPS/IFNγ control; Effects on PGE2 release in J774 macrophages at l0 μM as a % of LPS/IFNγ control, mean ([2]; l0 μM): 111 % of LPS/IFNγ control
−6.18 | COc1cc(C2CCCCC2)c(C(C)=NOCc2ccc([N+](=O)[O-])cc2)cc1O [CP30424, 2′-Cyclohexyl-5′-hydroxy-4′-methoxyacetophenone O-4-Nitrobenzyl Oxime] | – | activity at 1 µM [2]: 83%
−5.81 | COc1cc([C@H]2CC[C@@](C)(CO)CC2)c(C(C)=NOCc2ccc3nonc3c2)cc1O [CP30453, 2′-(4-Hydroxymethyl-4-methyl)cyclohexyl-5′-hydroxy-4′-methoxyacetophenone O-(benzofurazan-5-yl)methyl Oxime] | – | –
−6.91 | COc1cc2c(cc1O)/C(=N/OCc1ccc3nonc3c1)CCC2 [Compound 2-TB-146, (E)-7-Hydroxy-6-methoxy-3,4-dihydronaphthalen-1(2H)-one O-benzo[c][1,2,5]oxadiazol-5-ylmethyl oxime] | – | –
−6.43 | COc1cc2c(cc1O)/C(=N/OCc1ccc3nonc3c1)CC2 [Compound 2-TB-147, (E)-6-Hydroxy-5-methoxy-2,3-dihydro-1H-inden-1-one O-benzo[c][1,2,5]oxadiazol-5-ylmethyl oxime] | – | –
−6.48 | COc1cc2c(cc1O)/C(=N/OCc1ccc([N+](=O)[O-])cc1)CCC2 [TB76, (E)-7-Hydroxy-6-methoxy-3,4-dihydronaphthalen-1(2H)-one O-4-Nitrobenzyl Oxime] | – | –
−6.16 | COc1cc2c(cc1O)/C(=N/OCc1ccc([N+](=O)[O-])cc1)CC2 [TB81, (E)-6-Hydroxy-5-methoxy-2,3-dihydroinden-1-one O-4-Nitrobenzyl Oxime] | – | –
